Measured values from the NIST ThermoML archive (doi:10.1016/j.jct.2018.08.004).

Assay: xn = mol fraction of the nth substance listed
Settings: for surface tension liquid-gas: Maximal bubble pressure; for mass density: 100 kPa, Liquid, Vibrating tube method

CCCC[n+]1ccccc1.N#C[N-]C#N [1-butylpyridinium dicyanamide] + CC(C)O
Settings | mass density [kg/m3] | surface tension liquid-gas [mN/m]
288.15 K, x1 = 0.1008 | 857.57 | 23.3
288.15 K, x1 = 0.2007 | 906.69 | 25.7
288.15 K, x1 = 0.3005 | 944.56 | 26.9
288.15 K, x1 = 0.3999 | 974.5 | 28.5
288.15 K, x1 = 0.5005 | 999.39 | 30.5
288.15 K, x1 = 0.5998 | 1019.53 | 33.2
288.15 K, x1 = 0.7004 | 1036.66 | 35.9
288.15 K, x1 = 0.7972 | 1050.66 | 39.9
288.15 K, x1 = 0.9032 | 1063.81 | 45.5
288.15 K, x1 = 1 | 1074.97 | 56.3
293.15 K, x1 = 0.1008 | 853.79 | 22.8
293.15 K, x1 = 0.2007 | 903.11 | 25.2
293.15 K, x1 = 0.3005 | 941.13 | 26.7
293.15 K, x1 = 0.3999 | 971.16 | 28
293.15 K, x1 = 0.5005 | 996.12 | 30.2
293.15 K, x1 = 0.5998 | 1016.32 | 32.9
293.15 K, x1 = 0.7004 | 1033.49 | 35.7
293.15 K, x1 = 0.7972 | 1047.51 | 39.6
293.15 K, x1 = 0.9032 | 1060.69 | 45.2
293.15 K, x1 = 1 | 1071.9 | 56
298.15 K, x1 = 0.1008 | 849.98 | 22.3
298.15 K, x1 = 0.2007 | 899.51 | 24.8
298.15 K, x1 = 0.3005 | 937.68 | 26.2
298.15 K, x1 = 0.3999 | 967.82 | 27.8
298.15 K, x1 = 0.5005 | 992.86 | 29.9
298.15 K, x1 = 0.5998 | 1013.12 | 32.5
298.15 K, x1 = 0.7004 | 1030.32 | 35.3
298.15 K, x1 = 0.7972 | 1044.37 | 39.3
298.15 K, x1 = 0.9032 | 1057.57 | 44.9
298.15 K, x1 = 1 | 1068.83 | 55.7
303.15 K, x1 = 0.1008 | 846.14 | 22
303.15 K, x1 = 0.2007 | 895.9 | 24.5
303.15 K, x1 = 0.3005 | 934.24 | 25.9
303.15 K, x1 = 0.3999 | 964.49 | 27.5
303.15 K, x1 = 0.5005 | 989.61 | 29.6
303.15 K, x1 = 0.5998 | 1009.92 | 32.3
303.15 K, x1 = 0.7004 | 1027.16 | 35.1
303.15 K, x1 = 0.7972 | 1041.24 | 39.1
303.15 K, x1 = 0.9032 | 1054.46 | 44.7
303.15 K, x1 = 1 | 1065.76 | 55.5
308.15 K, x1 = 0.1008 | 842.28 | 21.6
308.15 K, x1 = 0.2007 | 892.3 | 24.1
308.15 K, x1 = 0.3005 | 930.8 | 25.5
308.15 K, x1 = 0.3999 | 961.18 | 27.1
308.15 K, x1 = 0.5005 | 986.37 | 29.3
308.15 K, x1 = 0.5998 | 1006.74 | 32
308.15 K, x1 = 0.7004 | 1024.02 | 34.8
308.15 K, x1 = 0.7972 | 1038.13 | 38.8
308.15 K, x1 = 0.9032 | 1051.37 | 44.4
308.15 K, x1 = 1 | 1062.7 | 55.2
313.15 K, x1 = 0.1008 | 838.39 | 21.3
313.15 K, x1 = 0.2007 | 888.69 | 23.8
313.15 K, x1 = 0.3005 | 927.36 | 25.2
313.15 K, x1 = 0.3999 | 957.86 | 26.8
313.15 K, x1 = 0.5005 | 983.14 | 29
313.15 K, x1 = 0.5998 | 1003.56 | 31.7
313.15 K, x1 = 0.7004 | 1020.89 | 34.5
313.15 K, x1 = 0.7972 | 1035.03 | 38.5
313.15 K, x1 = 0.9032 | 1048.3 | 44.1
313.15 K, x1 = 1 | 1059.66 | 54.9
318.15 K, x1 = 0.1008 | 834.48 | 20.8
318.15 K, x1 = 0.2007 | 885.06 | 23.4
318.15 K, x1 = 0.3005 | 923.93 | 24.9
318.15 K, x1 = 0.3999 | 954.55 | 26.5
318.15 K, x1 = 0.5005 | 979.93 | 28.6
318.15 K, x1 = 0.5998 | 1000.4 | 31.4
318.15 K, x1 = 0.7004 | 1017.77 | 34.2
318.15 K, x1 = 0.7972 | 1031.94 | 38.2
318.15 K, x1 = 0.9032 | 1045.24 | 43.8
318.15 K, x1 = 1 | 1056.64 | 54.5
